Results published in patent US7208485B2, “Crystalline forms of halobetasol propionate” (Chemagis Ltd., priority 2003, dated 2007).

Assay: Thermal solid-state stability / phase transition on heating (hot-stage microscopy, DSC)
Assay type: physicochemical
Details: for temperature of solid-solid phase transition upon heating: heating at ambient pressure, observed by hot-stage microscopy and as DSC peak
Description: Differential scanning calorimetry experiments were run on DuPont instruments model DSC 910, with software version 4.1C. Samples were analyzed inside 40 μl crimped Aluminum pan. Heating rate for all samples was 5° C./min. Since the melting of halobetasol propionate is accompanied by decomposition, the heating process was stopped slightly after the beginning of melting, in order to avoid damage to the measuring apparatus caused by decomposition products.

Compound | temperature of solid-solid phase transition upon heating | other results
CCC(=O)O[C@]1(C(=O)CCl)[C@@H](C)CC2[C@@H]3C[C@H](F)C4=CC(=O)C=C[C@]4(C)[C@@]3(F)[C@@H](O)C[C@@]21C (some centres unmarked) [Form III, halobetasol propionate Form III] | 160 °C | –
CCC(=O)O[C@]1(C(=O)CCl)[C@@H](C)CC2[C@@H]3C[C@H](F)C4=CC(=O)C=C[C@]4(C)[C@@]3(F)[C@@H](O)C[C@@]21C (some centres unmarked) [Form VI, halobetasol propionate Form VI] | 150–170 °C | –
CCC(=O)O[C@]1(C(=O)CCl)[C@@H](C)CC2[C@@H]3C[C@H](F)C4=CC(=O)C=C[C@]4(C)[C@@]3(F)[C@@H](O)C[C@@]21C (some centres unmarked) [Form II, halobetasol propionate Form II] | – | temperature to which heated without converting to another crystalline or amorphous form and without significant decomposition (heating): ≤ 200 °C; transitions upon heating to melting temperature (hot stage microscopy): no detectable transitions
CCC(=O)O[C@]1(C(=O)CCl)[C@@H](C)CC2[C@@H]3C[C@H](F)C4=CC(=O)C=C[C@]4(C)[C@@]3(F)[C@@H](O)C[C@@]21C (some centres unmarked) [Form I, halobetasol propionate Form I] | 90 °C | –
CCC(=O)O[C@]1(C(=O)CCl)[C@@H](C)CC2[C@@H]3C[C@H](F)C4=CC(=O)C=C[C@]4(C)[C@@]3(F)[C@@H](O)C[C@@]21C (some centres unmarked) [Form V, halobetasol propionate Form V] | about 90 °C | –
CCC(=O)O[C@]1(C(=O)CCl)[C@@H](C)CC2[C@@H]3C[C@H](F)C4=CC(=O)C=C[C@]4(C)[C@@]3(F)[C@@H](O)C[C@@]21C (some centres unmarked) [Form IV, halobetasol propionate Form IV] | 120–130 °C | temperature of solid-solid phase transition under vacuum (heating under vacuum for about an hour or two): about 60 °C
